Results taken from article PMC3195361 (Bioorganic & medicinal chemistry, 2011).
One block for each molecule: values may come before it.

Tests used:
[1] = tested on: H2009 xenograft; type: in vivo, NOD/SCID mice; conditions: 5 mg/kg based on paclitaxel; for tumor growth rate compared to saline: i.v. tail vein, days 18, 21, 24, 27, 30
[2] = 5 mg/kg based on paclitaxel, 5 injections; data not shown
[3] = tested on: H460 cells; test: Cell viability assay; type: cell-based, Human; conditions: H460.1 column; 10 min exposure followed by 120 h recovery in media
[4] = tested on: H2009 cells; test: Cell cycle analysis by PI DNA staining and flow cytometry; type: cell-based, Human; conditions: for effect on cell cycle: H2009 cells
[5] = tested on: H2009 cells; test: Cell viability assay; type: cell-based, Human; conditions: for IC50: 10 min exposure followed by 120 h recovery in media
[6] = tested on: integrin αvβ6; conditions: read-out: half-maximal binding affinity; tetramerized H2009.1 peptide; cited from earlier work
[7] = PBS pH 7.4, 37° C, after 96 hours
[8] = tested on: porcine esterase
[9] = Solubility of the peptide-paclitaxel conjugates; type: physicochemical; conditions: cold water; white powder
[10] = tested on: H2009 cells (αvβ6-positive); type: binding, Human; conditions: fluorescein-labeled conjugate, 1 hour, flow cytometry
[11] = 1 μM paclitaxel column, time not printed in table (24 h elsewhere in the source)

animal weights [2]: remained steady | IC50 [3]: 23.6 ± 7.4 nM | IC50 [5]: 14.8 ± 3.3 nM
SMILES: CC(=O)O[C@H]1C(=O)[C@@]2(C)[C@H]([C@H](OC(=O)c3ccccc3)[C@]3(O)C[C@H](OC(=O)[C@H](O)[C@@H](NC(=O)c4ccccc4)c4ccccc4)C(C)=C1C3(C)C)[C@]1(OC(C)=O)CO[C@@H]1C[C@@H]2O [Paclitaxel, reference compound]
tumor growth rate compared to saline [1]: slowed | G2/M [4, 11]: 73.5 | Polyploid [4, 11]: 14 | S [4, 11]: 4.1 | effect on cell cycle ([4]; 1 μM, at 24 h): G2/M cell cycle arrest was observed | effect on cell viability within the first 48 h ([5]; 1 μM for 10 min, then recovery): rapid reduction of cell viability

SMILES: CC(C)C[C@H](NC(=O)[C@H](CCC(N)=O)NC(=O)[C@H](CCCNC(=N)N)NC(=O)[C@H](CC(C)C)NC(=O)[C@@H](NC(=O)[C@H](C)NC(=O)[C@H](CC(C)C)NC(=O)[C@H](CC(=O)O)NC(=O)CNC(=O)[C@@H](N)CCCNC(=N)N)[C@@H](C)O)C(=O)NCCOCCOCCOCCOCCOCCOCCOCCOCCOCCOCCOCCOCCC(=O)N[C@@H](CSC1CC(=O)N(CCC(=O)NCCCC[C@H](NC(=O)CCN2C(=O)CC(SC[C@H](NC(=O)CCOCCOCCOCCOCCOCCOCCOCCOCCOCCOCCOCCOCCNC(=O)[C@H](CC(C)C)NC(=O)[C@H](CCC(N)=O)NC(=O)[C@H](CCCNC(=N)N)NC(=O)[C@H](CC(C)C)NC(=O)[C@@H](NC(=O)[C@H](C)NC(=O)[C@H](CC(C)C)NC(=O)[C@H](CC(=O)O)NC(=O)CNC(=O)[C@@H](N)CCCNC(=N)N)[C@@H](C)O)C(N)=O)C2=O)C(=O)NCCCC[C@H](NC(=O)[C@H](CCCCNC(=O)CCN2C(=O)CC(SC[C@H](NC(=O)CCOCCOCCOCCOCCOCCOCCOCCOCCOCCOCCOCCOCCNC(=O)[C@H](CC(C)C)NC(=O)[C@H](CCC(N)=O)NC(=O)[C@H](CCCNC(=N)N)NC(=O)[C@H](CC(C)C)NC(=O)[C@@H](NC(=O)[C@H](C)NC(=O)[C@H](CC(C)C)NC(=O)[C@H](CC(=O)O)NC(=O)CNC(=O)[C@@H](N)CCCNC(=N)N)[C@@H](C)O)C(N)=O)C2=O)NC(=O)CCN2C(=O)CC(SC[C@H](NC(=O)CCOCCOCCOCCOCCOCCOCCOCCOCCOCCOCCOCCOCCNC(=O)[C@H](CC(C)C)NC(=O)[C@H](CCC(N)=O)NC(=O)[C@H](CCCNC(=N)N)NC(=O)[C@H](CC(C)C)NC(=O)[C@@H](NC(=O)[C@H](C)NC(=O)[C@H](CC(C)C)NC(=O)[C@H](CC(=O)O)NC(=O)CNC(=O)[C@@H](N)CCCNC(=N)N)[C@@H](C)O)C(N)=O)C2=O)C(=O)N[C@@H](CS)C(=O)NCCC(=O)O)C1=O)C(N)=O (stereo partly drawn) [compound 2]
EC50 [6]: 0.05 nM

SMILES: CC(=O)O[C@H]1C(=O)[C@@]2(C)[C@H]([C@H](OC(=O)c3ccccc3)[C@]3(O)C[C@H](OC(=O)[C@H](OC(=O)CCN4C(=O)CC(SC[C@H](NC(=O)[C@H](CCCCNC(=O)[C@H](CCCCNC(=O)CCN5C(=O)CC(SC[C@H](NC(=O)CCOCCOCCOCCOCCOCCOCCOCCOCCOCCOCCOCCOCCNC(=O)[C@H](CC(C)C)NC(=O)[C@H](CCC(N)=O)NC(=O)[C@H](CCCNC(=N)N)NC(=O)[C@H](CC(C)C)NC(=O)[C@@H](NC(=O)[C@H](C)NC(=O)[C@H](CC(C)C)NC(=O)[C@H](CC(=O)O)NC(=O)CNC(=O)[C@@H](N)CCCNC(=N)N)[C@@H](C)O)C(N)=O)C5=O)NC(=O)CCN5C(=O)CC(SC[C@H](NC(=O)CCOCCOCCOCCOCCOCCOCCOCCOCCOCCOCCOCCOCCNC(=O)[C@H](CC(C)C)NC(=O)[C@H](CCC(N)=O)NC(=O)[C@H](CCCNC(=N)N)NC(=O)[C@H](CC(C)C)NC(=O)[C@@H](NC(=O)[C@H](C)NC(=O)[C@H](CC(C)C)NC(=O)[C@H](CC(=O)O)NC(=O)CNC(=O)[C@@H](N)CCCNC(=N)N)[C@@H](C)O)C(N)=O)C5=O)NC(=O)[C@H](CCCCNC(=O)CCN5C(=O)CC(SC[C@H](NC(=O)CCOCCOCCOCCOCCOCCOCCOCCOCCOCCOCCOCCOCCNC(=O)[C@H](CC(C)C)NC(=O)[C@H](CCC(N)=O)NC(=O)[C@H](CCCNC(=N)N)NC(=O)[C@H](CC(C)C)NC(=O)[C@@H](NC(=O)[C@H](C)NC(=O)[C@H](CC(C)C)NC(=O)[C@H](CC(=O)O)NC(=O)CNC(=O)[C@@H](N)CCCNC(=N)N)[C@@H](C)O)C(N)=O)C5=O)NC(=O)CCN5C(=O)CC(SC[C@H](NC(=O)CCOCCOCCOCCOCCOCCOCCOCCOCCOCCOCCOCCOCCNC(=O)[C@H](CC(C)C)NC(=O)[C@H](CCC(N)=O)NC(=O)[C@H](CCCNC(=N)N)NC(=O)[C@H](CC(C)C)NC(=O)[C@@H](NC(=O)[C@H](C)NC(=O)[C@H](CC(C)C)NC(=O)[C@H](CC(=O)O)NC(=O)CNC(=O)[C@@H](N)CCCNC(=N)N)[C@@H](C)O)C(N)=O)C5=O)C(=O)NCCC(=O)O)C4=O)[C@@H](NC(=O)c4ccccc4)c4ccccc4)C(C)=C1C3(C)C)[C@]1(OC(C)=O)CO[C@@H]1C[C@@H]2O (stereo partly drawn) [compound 3]
paclitaxel released [7]: minimal paclitaxel was released | delay of effect on tumor growth relative to free drug [1]: 7 days | tumor growth rate compared to saline [1]: reduced the rate of tumor growth compared to saline | IC50 [3]: Not Reached ^b | increase of paclitaxel release with esterase versus PBS ([8]; esterase in PBS vs PBS): 7 fold | paclitaxel released ([8]; porcine esterase (18u/mL) in PBS, 37° C, by 48 h): 34.1% | solubility [9]: soluble in cold water | G1 ([4]; 1 μM, 24 h): 44.9 | G2/M ([4]; 1 μM, 24 h): 39.0 | Polyploid ([4]; 1 μM, 24 h): 8.0 | S ([4]; 1 μM, 24 h): 8.1 | G1 ([4]; 1 μM, 48 h): 11.4 | G2/M ([4]; 1 μM, 48 h): 57.1 | Polyploid ([4]; 1 μM, 48 h): 26.9 | S ([4]; 1 μM, 48 h): 4.5 | increase in number of cells in G2/M ([4]; 1 μM, at 48 h): ~ 2 fold | increase in polyploid cells ([4]; 1 μM, at 48 h): 3 fold | G1 ([4]; 5 μM, 24 h): 35.8 | G2/M ([4]; 5 μM, 24 h): 45.8 | Polyploid ([4]; 5 μM, 24 h): 11.7 | S ([4]; 5 μM, 24 h): 6.7 | G1 ([4]; 5 μM, 48 h): 23.9 | G2/M ([4]; 5 μM, 48 h): 53.9 | Polyploid ([4]; 5 μM, 48 h): 23.6 | S ([4]; 5 μM, 48 h): 8.5 | effect on cell cycle ([4]; 1 μM, at 24 h): the cell cycle remains unperturbed | more G2/M arrest at increased conjugate concentration ([4]; increased concentration (5 μM in Table II), at 24 h): Approximately 50% | time at which reduction of cell viability begins ([5]; 1 μM for 10 min, then recovery): 72 h

SMILES: CC(=O)O[C@H]1C(=O)[C@@]2(C)[C@H]([C@H](OC(=O)c3ccccc3)[C@]3(O)C[C@H](OC(=O)[C@H](OC(=O)CCN4C(=O)CC(SC[C@H](NC(=O)[C@H](CCCCNC(=O)[C@H](CCCCNC(=O)CCN5C(=O)CC(SC[C@H](NC(=O)CCOCCOCCOCCOCCOCCOCCOCCOCCOCCOCCOCCOCCNC(=O)[C@H](CCCNC(=N)N)NC(=O)[C@H](CC(C)C)NC(=O)[C@@H](NC(=O)CNC(=O)[C@H](CCC(N)=O)NC(=O)[C@H](CC(C)C)NC(=O)[C@H](CCCNC(=N)N)NC(=O)[C@H](CC(C)C)NC(=O)[C@H](C)NC(=O)[C@@H](N)CC(=O)O)[C@@H](C)O)C(N)=O)C5=O)NC(=O)CCN5C(=O)CC(SC[C@H](NC(=O)CCOCCOCCOCCOCCOCCOCCOCCOCCOCCOCCOCCOCCNC(=O)[C@H](CCCNC(=N)N)NC(=O)[C@H](CC(C)C)NC(=O)[C@@H](NC(=O)CNC(=O)[C@H](CCC(N)=O)NC(=O)[C@H](CC(C)C)NC(=O)[C@H](CCCNC(=N)N)NC(=O)[C@H](CC(C)C)NC(=O)[C@H](C)NC(=O)[C@@H](N)CC(=O)O)[C@@H](C)O)C(N)=O)C5=O)NC(=O)[C@H](CCCCNC(=O)CCN5C(=O)CC(SC[C@H](NC(=O)CCOCCOCCOCCOCCOCCOCCOCCOCCOCCOCCOCCOCCNC(=O)[C@H](CCCNC(=N)N)NC(=O)[C@H](CC(C)C)NC(=O)[C@@H](NC(=O)CNC(=O)[C@H](CCC(N)=O)NC(=O)[C@H](CC(C)C)NC(=O)[C@H](CCCNC(=N)N)NC(=O)[C@H](CC(C)C)NC(=O)[C@H](C)NC(=O)[C@@H](N)CC(=O)O)[C@@H](C)O)C(N)=O)C5=O)NC(=O)CCN5C(=O)CC(SC[C@H](NC(=O)CCOCCOCCOCCOCCOCCOCCOCCOCCOCCOCCOCCOCCNC(=O)[C@H](CCCNC(=N)N)NC(=O)[C@H](CC(C)C)NC(=O)[C@@H](NC(=O)CNC(=O)[C@H](CCC(N)=O)NC(=O)[C@H](CC(C)C)NC(=O)[C@H](CCCNC(=N)N)NC(=O)[C@H](CC(C)C)NC(=O)[C@H](C)NC(=O)[C@@H](N)CC(=O)O)[C@@H](C)O)C(N)=O)C5=O)C(=O)NCCC(=O)O)C4=O)[C@@H](NC(=O)c4ccccc4)c4ccccc4)C(C)=C1C3(C)C)[C@]1(OC(C)=O)CO[C@@H]1C[C@@H]2O (stereo partly drawn) [scrambled peptide-paclitaxel conjugate]
IC50 [3]: Not Reached ^b | binding to H2009 cells [10]: no binding was observed | solubility [9]: soluble in cold water | IC50 [5]: Not Reached ^b
